This passage reports IC50 and inhibition results from ChEMBL document CHEMBL1156081, “Discovery of 4-functionalized phenyl-O-beta-D-glycosides as a new class of mushroom tyrosinase inhibitors” (Bioorg Med Chem Lett, 2009).

One may read the IC50 as the midpoint of a concentration-inhibition curve. A lower IC50 goes with greater potency.

One test has as its target T1, Tyrosinase (Agaricus bisporus, UniProt O42713).
T1 sequence (O42713 whole entry): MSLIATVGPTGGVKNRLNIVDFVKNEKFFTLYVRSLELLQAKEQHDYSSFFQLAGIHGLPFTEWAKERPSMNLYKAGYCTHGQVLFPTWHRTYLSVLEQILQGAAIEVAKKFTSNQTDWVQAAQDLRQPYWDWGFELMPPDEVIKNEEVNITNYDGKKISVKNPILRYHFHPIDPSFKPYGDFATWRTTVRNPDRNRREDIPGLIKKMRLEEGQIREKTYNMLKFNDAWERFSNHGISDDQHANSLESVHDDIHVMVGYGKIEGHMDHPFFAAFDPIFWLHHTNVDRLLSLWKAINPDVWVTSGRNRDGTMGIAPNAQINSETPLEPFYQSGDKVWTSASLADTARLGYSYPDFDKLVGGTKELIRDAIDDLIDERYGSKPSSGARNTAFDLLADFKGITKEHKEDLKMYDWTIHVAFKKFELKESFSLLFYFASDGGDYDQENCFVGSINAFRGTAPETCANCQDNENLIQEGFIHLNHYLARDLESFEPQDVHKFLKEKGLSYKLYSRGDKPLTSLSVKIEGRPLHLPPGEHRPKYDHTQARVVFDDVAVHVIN
The test is described as follows: Inhibition of mushroom tyrosinase.

The target of test [1] is T2, Tyrosinase (Agaricus bisporus) (UniProt O42713).
T2 sequence (whole entry): T1 sequence (O42713 whole entry)
The test is described as follows: Reversible inhibition of mushroom tyrosinase assessed as L-DOPA oxidation at 1.2 to 2.4 uM.

Test [2] deals with T2, Tyrosinase (Agaricus bisporus). The note with it: 1.06 to 0.12 uM.
Description: Competitive inhibition of mushroom tyrosinase assessed as L-DOPA oxidation at 1.06 to 0.12 uM by Lineweaver-Burke double reciprocal plot
Test [3] shares this target. As to the kind of experiment: Inhibition of mushroom tyrosinase at 200 uM.
For test [4] the target is unchanged. As to the kind of experiment: Competitive-uncompetitive mixed-2 type inhibition of mushroom tyrosinase assessed as L-DOPA oxidation at 0.05 to 0.10 uM by Lineweaver-Burke double reciprocal plot.

Calls of active or inactive are those of the source. No cut-off for these calls is given here.

`NC(=S)N/N=C\c1ccc(O[C@@H]2O[C@H](COC(=O)c3ccccc3)[C@@H](OC(=O)c3ccccc3)[C@@H](OC(=O)c3ccccc3)[C@H]2OC(=O)c2ccccc2)cc1` returned a half-maximal inhibitory concentration (IC50) on Tyrosinase of 52.8 µM. Turning to `CC(=O)OC[C@H]1O[C@@H](Oc2ccc(/C=N\NC(N)=S)cc2)[C@H](OC(C)=O)[C@@H](OC(C)=O)[C@@H]1OC(C)=O`, on Tyrosinase, the IC50 came to 0.31 µM. Also, the inhibition result in test [1] and in test [2] was “Active” each time. For the compound `O=Cc1ccc(O[C@@H]2O[C@H](COC(=O)c3ccccc3)[C@@H](OC(=O)c3ccccc3)[C@@H](OC(=O)c3ccccc3)[C@H]2OC(=O)c2ccccc2)cc1`, the inhibition result in test [3] was “inactive”. Same read-out and setting: the value for `O=Cc1ccc(O[C@@H]2OC[C@@H](OC(=O)c3ccccc3)[C@H](OC(=O)c3ccccc3)[C@H]2OC(=O)c2ccccc2)cc1` was “inactive”.

`O=C(O[C@@H]1[C@@H](OC(=O)c2ccccc2)[C@H](Oc2ccc(/C=N\O)cc2)OC[C@H]1OC(=O)c1ccccc1)c1ccccc1`: the inhibition entry in test [3] was “inactive”. On Tyrosinase, this compound registered an IC50 of over 200 µM. With `CO/N=C\c1ccc(O[C@@H]2O[C@H](COC(=O)c3ccccc3)[C@@H](OC(=O)c3ccccc3)[C@@H](OC(=O)c3ccccc3)[C@H]2OC(=O)c2ccccc2)cc1`, in test [3], the inhibition result is “inactive”. Further, the IC50 against Tyrosinase was over 200 µM.

Turning to `CO/N=C\c1ccc(O[C@@H]2O[C@H](CO)[C@@H](O)[C@H](O)[C@H]2O)cc1`, the inhibition result in test [3] was “inactive”. This compound also displayed an IC50 against Tyrosinase of over 200 µM. For `NC(=S)N/N=C\c1ccc(O[C@@H]2O[C@H](CO)[C@@H](O)[C@@H](O)[C@H]2O)cc1`, inhibition against Tyrosinase was half-maximal at 3.61 µM (IC50).

With `CC(=O)OC[C@H]1O[C@@H](Oc2ccc(/C=N\O)cc2)[C@H](OC(C)=O)[C@@H](OC(C)=O)[C@H]1OC(C)=O`, the inhibition entry in test [3] was “inactive”. Further, the 50% inhibitory concentration (IC50) against Tyrosinase is over 200 µM. In the case of `OC[C@H]1O[C@@H](Oc2ccc(/C=N\O)cc2)[C@H](O)[C@@H](O)[C@@H]1O`, the inhibition result in test [3] is “inactive”. At Tyrosinase, this compound yielded an IC50 of over 200 µM. Taken in the same sequence, the figures for `CO/N=C\c1ccc(O[C@@H]2O[C@H](CO)[C@@H](O)[C@@H](O)[C@H]2O)cc1` were “inactive” and over 200 µM. The matching figures for `O=C(OC[C@H]1O[C@@H](Oc2ccc(/C=N\O)cc2)[C@H](OC(=O)c2ccccc2)[C@H](OC(=O)c2ccccc2)[C@@H]1OC(=O)c1ccccc1)c1ccccc1`: “inactive” and over 200 µM. In the case of `CO/N=C\c1ccc(O[C@@H]2OC[C@@H](OC(=O)c3ccccc3)[C@H](OC(=O)c3ccccc3)[C@H]2OC(=O)c2ccccc2)cc1`, the inhibition entry in test [3] was “inactive”. This compound registered a concentration for half-maximal inhibition (IC50) on Tyrosinase of over 200 µM.

Regarding `CC(=O)OC[C@H]1O[C@@H](Oc2ccc(/C=N\NC(N)=S)cc2)[C@H](OC(C)=O)[C@@H](OC(C)=O)[C@H]1OC(C)=O`, at Tyrosinase, it took 0.41 µM to reach half-maximal inhibition (IC50). Take `CC(=O)OC[C@H]1O[C@@H](Oc2ccc(/C=N\O)cc2)[C@H](OC(C)=O)[C@@H](OC(C)=O)[C@@H]1OC(C)=O`: the inhibition result in test [3] was “inactive”. This compound came in with an IC50 on Tyrosinase of over 200 µM. In the case of `CCO/N=C\c1ccc(O)c(O)c1`, it took 0.3 µM to reach half-maximal inhibition against Tyrosinase (IC50). For `OC[C@H]1O[C@@H](Oc2ccc(/C=N\O)cc2)[C@H](O)[C@H](O)[C@@H]1O`, the inhibition result in test [3] was “inactive”. The IC50 against Tyrosinase was over 200 µM. The matching figures for `CO/N=C\c1ccc(O[C@@H]2O[C@H](COC(C)=O)[C@@H](OC(C)=O)[C@@H](OC(C)=O)[C@H]2OC(C)=O)cc1`: “inactive” and over 200 µM. Turning to `NC(=S)N/N=C\c1ccc(O[C@@H]2OC[C@@H](OC(=O)c3ccccc3)[C@H](OC(=O)c3ccccc3)[C@H]2OC(=O)c2ccccc2)cc1`, at Tyrosinase, half-maximal inhibition (IC50) was put at 36.5 µM.

For `CO/N=C\c1ccc(O[C@@H]2O[C@H](COC(C)=O)[C@@H](O[C@@H]3O[C@H](COC(C)=O)[C@H](OC(C)=O)[C@H](OC(C)=O)[C@H]3OC(C)=O)[C@H](OC(C)=O)[C@H]2OC(C)=O)cc1`, the inhibition result in test [3] was “inactive”. Besides, at Tyrosinase, the IC50 is over 200 µM. `CC(=O)OC[C@H]1O[C@@H](O[C@H]2[C@H](OC(C)=O)[C@@H](OC(C)=O)[C@H](Oc3ccc(/C=N\NC(N)=S)cc3)O[C@@H]2COC(C)=O)[C@H](OC(C)=O)[C@@H](OC(C)=O)[C@H]1OC(C)=O` registered a concentration for half-maximal inhibition (IC50) against Tyrosinase of 0.65 µM. Besides, the inhibition result in test [1] and in test [4] was “Active” in each case. For the compound `NC(=S)N/N=C\c1ccc(O[C@@H]2O[C@H](CO)[C@@H](O)[C@H](O)[C@H]2O)cc1`, it took 2.96 µM to reach half-maximal inhibition on Tyrosinase (IC50). On to `CC(=O)OC[C@H]1O[C@@H](Oc2ccc(/C=N\O)cc2)[C@H](OC(C)=O)[C@H](OC(C)=O)[C@@H]1OC(C)=O`, for which the inhibition result in test [3] was “inactive”. The IC50 on Tyrosinase is over 200 µM. As to `CC(=O)OC[C@H]1O[C@@H](Oc2ccc(C=O)cc2)[C@H](OC(C)=O)[C@@H](OC(C)=O)[C@@H]1OC(C)=O`, the inhibition result in test [3] is “inactive”. As for `O=Cc1ccc(O[C@@H]2O[C@H](CO)[C@@H](O)[C@@H](O)[C@H]2O)cc1`, in test [3], the inhibition entry was “inactive”.

As for `CC(=O)OC[C@H]1O[C@@H](O[C@H]2[C@H](OC(C)=O)[C@@H](OC(C)=O)[C@H](Oc3ccc(/C=N\O)cc3)O[C@@H]2COC(C)=O)[C@H](OC(C)=O)[C@@H](OC(C)=O)[C@H]1OC(C)=O`, the inhibition result in test [3] was “inactive”. The half-inhibitory concentration (IC50) against Tyrosinase is over 200 µM. As to `O=Cc1ccc(O[C@@H]2O[C@H](CO)[C@@H](O)[C@H](O)[C@H]2O)cc1`, the inhibition result in test [3] was “inactive”. Take `CC(=O)OC[C@H]1O[C@@H](Oc2ccc(C=O)cc2)[C@H](OC(C)=O)[C@@H](OC(C)=O)[C@H]1OC(C)=O`: the inhibition entry in test [3] was “inactive”. Still for that read-out and setting: the value for `CC(=O)OC[C@H]1O[C@@H](Oc2ccc(C=O)cc2)[C@H](OC(C)=O)[C@H](OC(C)=O)[C@@H]1OC(C)=O` was “inactive”.

In turn, `CC(=O)OC[C@H]1O[C@@H](Oc2ccc(/C=N\NC(N)=S)cc2)[C@H](OC(C)=O)[C@H](OC(C)=O)[C@@H]1OC(C)=O` returned an IC50 against Tyrosinase of 3.41 µM.

Take `CO/N=C\c1ccc(O[C@@H]2O[C@H](COC(C)=O)[C@H](OC(C)=O)[C@H](OC(C)=O)[C@H]2OC(C)=O)cc1`: in test [3], the inhibition result was “inactive”. This compound returned an IC50 at Tyrosinase of over 200 µM. Taken in the same sequence, the figures for `CO/N=C\c1ccc(O[C@@H]2O[C@H](COC(C)=O)[C@@H](OC(C)=O)[C@H](OC(C)=O)[C@H]2OC(C)=O)cc1` were “inactive” and over 200 µM.
